From US4908351A, “Antibiotic a 42867 derivative” (Merrell Dow Pharmaceuticals Inc., priority 1988, dated 1990)

Key:
Assay in all cases: MIC, broth dilution test
Type in all cases: cell-based
[1] = test system: Staph. epidermidis L 147 ATCC 12228 (coagulase negative); conditions: Isosensitest broth, 24 h, 37° C.
Method: (§1) Culture media and growth conditions for MIC (minimal inhibitory concentration) determinations were as follows: Isosensitest broth (Oxoid), 24 h, for staphylococci, Strep. faecalis and Gram-negative bacteria (Escherichia coli); Todd-Hewitt broth (Difco), 24 h for other streptococcal species; GC base broth (Difco) +1% Isovitalex (BBL), 48 h, CO2 -enriched atmosphere for Neisseria gonorrhoeae; Brain Heart broth (Difco) +1% Supplement C (Difco), 48 h for Haemophilus influenzae. PPLO broth with supplements as in R. T. Evans and D. Taylor-Robinson (J. Antimicrob. Chemother. 4, 57), 24 h for U. urealyticum. Incubation was at 37° C. Inocula were as follows: about 10^4 color-changing units/ml for U. urealyticum; about 10^4 -10^5 colony-forming units/ml for other broth dilution MICs. The minimal inhibitory concentrations (MIC, microgram/ml) for some microorganisms are reported below in Table I.

[2] = test system: Strep. faecalis L 149 ATCC 7080; conditions: Isosensitest broth, 24 h, 37° C.
Method: as §1

[3] = test system: Strep. pyogenes L 49 C 203; conditions: Todd-Hewitt broth, 24 h, 37° C.
Method: as §1

[4] = test system: Ureaplasma urealyticum 1479 clin. isolate; conditions: PPLO broth with supplements, 24 h, about 10^4 color-changing units/ml, 37° C.
Method: as §1

[5] = test system: Strep. pneumoniae L 44 UC 41; conditions: Todd-Hewitt broth, 24 h, 37° C.
Method: as §1

[6] = test system: Haemophilus influenzae type b L 970 ATCC 19418; conditions: Brain Heart broth +1% Supplement C, 48 h, 37° C.
Method: as §1

[7] = test system: Strep. mitis L 796 (clinical isolate); conditions: Todd-Hewitt broth, 24 h, 37° C.
Method: as §1

[8] = test system: Neisseria gonorrhoeae L 997 ISM 68/126; conditions: GC base broth +1% Isovitalex, 48 h, CO2-enriched atmosphere, 37° C.
Method: as §1

[9] = test system: Staph. haemolyticus clin isolate; conditions: Isosensitest broth, 24 h, 37° C.
Method: as §1

[10] = test system: Escherichia coli L 47 SKF 12140; conditions: Isosensitest broth, 24 h, 37° C.
Method: as §1

[11] = test system: Staph. aureus L 165; conditions: Isosensitest broth, 24 h, 37° C.
Method: as §1, with “Inocula were as follows: about 10^4 color-changing units/ml for U. urealyticum; about 10^4 -10^5 colony-forming units/ml for other broth dilution MICs.” left out

antibiotic A 42867 pseudoaglycon
M.I.C. [1]: 2 microgram/ml
M.I.C. [2]: 2 microgram/ml
M.I.C. [3]: 0.5 microgram/ml
M.I.C. [4]: > 128 microgram/ml
M.I.C. [5]: 1 microgram/ml
M.I.C. [6]: > 128 microgram/ml
M.I.C. [7]: 0.5 microgram/ml
M.I.C. [8]: 64 microgram/ml
M.I.C. [9]: 2 microgram/ml
M.I.C. [10]: > 128 microgram/ml
M.I.C. ([11]; Staph. aureus 10^6 cfu/ml): 1 microgram/ml
M.I.C. ([11]; Staph. aureus 30% bovine serum): 2 microgram/ml
M.I.C. ([11]; Staph. aureus L 165, 10^4 cfu/ml): 1 microgram/ml
